Values of other authors in patent publication US5670663A (priority 1996, dated 1997).

Key:
8A10 = conditions: monoclonal antibody 8A10
31-15 = conditions: antibody printed 31-15
3C6 = conditions: monoclonal antibody 3C6

Structure (SMILES) | cross reactivity with 8A10 (8A10) | relative affinity of antibody for baccatin III and its 7-epi isomer baccatin V (31-15) | reactivity with 3C6 (3C6) | activity against breast, lung and other cancers (cancer; breast, lung and other cancers) | antitumor activity (cancer; general statement)
CC(=O)O[C@@]12CO[C@@H]1C[C@H](O)[C@@]1(C)C(=O)[C@H](O)C3=C(C)[C@@H](O)C[C@@](O)([C@@H](OC(=O)c4ccccc4)[C@H]21)C3(C)C [10-deacetylbaccatin III] | cross reacts | – | – | – | –
CC(=O)O[C@H]1C(=O)[C@@]2(C)[C@H]([C@H](OC(=O)c3ccccc3)[C@]3(O)C[C@H](O)C(C)=C1C3(C)C)[C@]1(OC(C)=O)CO[C@@H]1C[C@@H]2O [baccatin III] | cross reacts | binds with equal affinity | – | – | –
C/C=C(\C)C(=O)N[C@@H](c1ccccc1)[C@@H](O)C(=O)O[C@H]1C[C@@]2(O)[C@@H](OC(=O)c3ccccc3)[C@@H]3[C@]4(OC(C)=O)CO[C@@H]4C[C@H](O)[C@@]3(C)C(=O)[C@H](OC(C)=O)C(=C1C)C2(C)C [Cephalomannine] | cross reacts | – | – | – | –
CC(=O)O[C@H]1C(=O)[C@@]2(C)[C@H]([C@H](OC(=O)c3ccccc3)[C@]3(O)C[C@H](OC(=O)[C@H](O)[C@@H](NC(=O)c4ccccc4)c4ccccc4)C(C)=C1C3(C)C)[C@]1(OC(C)=O)CO[C@@H]1C[C@@H]2O [paclitaxel] | cross reacts | – | specifically reactive | shown activity | significant antitumor activity
CC(=O)O[C@H]1C(=O)[C@]2(C)[C@H](O)C[C@H]3OC[C@@]3(OC(C)=O)[C@H]2[C@H](OC(=O)c2ccccc2)[C@]2(O)C[C@H](O)C(C)=C1C2(C)C [baccatin V] | – | binds with equal affinity | – | – | –
